PubChem BioAssay AID1963844 (Molecular Pharmacology Branch, DTP, NCI, 2024)

Test system: 422866-222-R5-J1-PDC complex spheroid viability
Test: Anticancer human tumor 422866-222-R5-J1-PDC patient-derived pancreatic adenocarcinoma cell line growth inhibition [POLQ]
Conditions: for IC50: curve of first compound; for viability, T/C: stronger effect = lower value
In short: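 Growth inhibition in 3D: complex spheroids (tumor PDC, HUVEC, MSC) treated with POLQ inhibitor combinations; where Cmax unknown, highest tested concentration 10 microM, except SN-38 at 1 microM.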

[1] = second compound 0.0316 µM, first compound 0.00316 µM
[2] = second compound 0.0316 µM, first compound 0.01 µM
[3] = second compound 0.0316 µM, first compound 0.0316 µM
[4] = second compound 0.0316 µM, first compound 0.1 µM
[5] = second compound 0.1 µM, first compound 0.00316 µM
[6] = second compound 0.1 µM, first compound 0.01 µM
[7] = second compound 0.1 µM, first compound 0.0316 µM
[8] = second compound 0.1 µM, first compound 0.1 µM
[9] = second compound 0.316 µM, first compound 0.00316 µM
[10] = second compound 0.316 µM, first compound 0.01 µM
[11] = second compound 0.316 µM, first compound 0.0316 µM
[12] = second compound 0.316 µM, first compound 0.1 µM
[13] = second compound 1 µM, first compound 0.00316 µM
[14] = second compound 1 µM, first compound 0.01 µM
[15] = second compound 1 µM, first compound 0.0316 µM
[16] = second compound 1 µM, first compound 0.1 µM
[17] = second compound 3.16 µM, first compound 0.00316 µM
[18] = second compound 3.16 µM, first compound 0.01 µM
[19] = second compound 3.16 µM, first compound 0.0316 µM
[20] = second compound 3.16 µM, first compound 0.1 µM
[21] = second compound 10 µM, first compound 0.00316 µM
[22] = second compound 10 µM, first compound 0.01 µM
[23] = second compound 10 µM, first compound 0.0316 µM
[24] = second compound 10 µM, first compound 0.1 µM
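Also: spheroids exposed to compounds for one week before readout.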
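For viability, T/C in this document: percent of DMSO vehicle wells luminescence so 100% = untreated viability.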

`CC[C@@]1(O)C(=O)OCc2c1cc1n(c2=O)Cc2cc3c(CN(C)C)c(O)ccc3nc2-1` + Cc1cccc(N(C)C(=O)C2C(O)CCN2c2nc(C)cc(C(F)(F)F)c2C#N)c1 was tested. Which IC50 (second compound 0.0316 µM) did it give?
The IC50 was 30.7 nM.

What about the IC50 (second compound 0.1 µM) of the same compound?
Its IC50 is 24.1 nM.

What about the IC50 (second compound 0.316 µM) of the same compound?
Its IC50 is 31.2 nM.

And the IC50 (second compound 1 µM)?
The IC50 was 47 nM.

What about the IC50 (second compound 3.16 µM) of the same compound?
Its IC50 is 25.9 nM.

What about the IC50 (second compound 10 µM) of the same compound?
Its IC50 is 31.3 nM.

What about the viability, T/C (second compound 0.0316 µM, first compound 0.000316 µM) of the same compound?
Its viability, T/C is 104%.

And the viability, T/C (second compound 0.0316 µM, first compound 0.001 µM)?
The viability, T/C was 101%.

What about the viability, T/C [1] of the same compound?
Its viability, T/C is 85.7%.

And the viability, T/C [2]?
The viability, T/C was 75.7%.

And the viability, T/C [3]?
The viability, T/C was 42.5%.

What about the viability, T/C [4] of the same compound?
The viability, T/C was 45.5%.

And the viability, T/C (second compound 0.1 µM, first compound 0.000316 µM)?
Its viability, T/C is 105%.

And the viability, T/C (second compound 0.1 µM, first compound 0.001 µM)?
The viability, T/C was 104%.

And the viability, T/C [5]?
The viability, T/C was 97%.

What about the viability, T/C [6] of the same compound?
Its viability, T/C is 62.6%.

And the viability, T/C [7]?
The viability, T/C was 46.2%.

What about the viability, T/C [8] of the same compound?
The viability, T/C was 44.4%.

What about the viability, T/C (second compound 0.316 µM, first compound 0.000316 µM) of the same compound?
Its viability, T/C is 114%.

What about the viability, T/C (second compound 0.316 µM, first compound 0.001 µM) of the same compound?
Its viability, T/C is 105%.

And the viability, T/C [9]?
Its viability, T/C is 98.2%.

What about the viability, T/C [10] of the same compound?
Its viability, T/C is 87.5%.

And the viability, T/C [11]?
Its viability, T/C is 47.6%.

What about the viability, T/C [12] of the same compound?
The viability, T/C was 46.3%.

What about the viability, T/C (second compound 1 µM, first compound 0.000316 µM) of the same compound?
The viability, T/C was 114%.

What about the viability, T/C (second compound 1 µM, first compound 0.001 µM) of the same compound?
The viability, T/C was 111%.

What about the viability, T/C [13] of the same compound?
The viability, T/C was 91%.

What about the viability, T/C [14] of the same compound?
The viability, T/C was 77.5%.

What about the viability, T/C [15] of the same compound?
Its viability, T/C is 53.5%.

And the viability, T/C [16]?
The viability, T/C was 41.1%.

What about the viability, T/C (second compound 3.16 µM, first compound 0.000316 µM) of the same compound?
Its viability, T/C is 96.2%.

And the viability, T/C (second compound 3.16 µM, first compound 0.001 µM)?
Its viability, T/C is 108%.

What about the viability, T/C [17] of the same compound?
Its viability, T/C is 98.9%.

And the viability, T/C [18]?
The viability, T/C was 80.3%.

What about the viability, T/C [19] of the same compound?
The viability, T/C was 40.8%.

And the viability, T/C [20]?
Its viability, T/C is 46.6%.

What about the viability, T/C (second compound 10 µM, first compound 0.000316 µM) of the same compound?
Its viability, T/C is 82%.

And the viability, T/C (second compound 10 µM, first compound 0.001 µM)?
Its viability, T/C is 106%.

And the viability, T/C [21]?
Its viability, T/C is 102%.

And the viability, T/C [22]?
Its viability, T/C is 77%.

And the viability, T/C [23]?
The viability, T/C was 50.7%.

And the viability, T/C [24]?
The viability, T/C was 48.8%.

What does the source list for `CCc1c2c(nc3ccc(O)cc13)-c1cc3c(c(=O)n1C2)COC(=O)[C@]3(O)CC` + Cc1cccc(N(C)C(=O)C2C(O)CCN2c2nc(C)cc(C(F)(F)F)c2C#N)c1?
IC50 (second compound 0.0316 µM): < 3.16 nM; IC50 (second compound 0.1 µM): < 3.16 nM; IC50 (second compound 0.316 µM): < 3.16 nM; IC50 (second compound 1 µM): < 3.16 nM; IC50 (second compound 3.16 µM): < 3.16 nM; IC50 (second compound 10 µM): < 3.16 nM; viability, T/C [1]: 44.4%; viability, T/C [2]: 37.4%; viability, T/C [3]: 38.7%; viability, T/C [4]: 37.7%; viability, T/C (second compound 0.0316 µM, first compound 0.316 µM): 34.4%; viability, T/C (second compound 0.0316 µM, first compound 1 µM): 21.4%; viability, T/C [5]: 49.1%; viability, T/C [6]: 34.3%; viability, T/C [7]: 38.9%; viability, T/C [8]: 34.8%; viability, T/C (second compound 0.1 µM, first compound 0.316 µM): 34.2%; viability, T/C (second compound 0.1 µM, first compound 1 µM): 28.2%; viability, T/C [9]: 46.2%; viability, T/C [10]: 40.4%; viability, T/C [11]: 37.3%; viability, T/C [12]: 38.1%; viability, T/C (second compound 0.316 µM, first compound 0.316 µM): 34.6%; viability, T/C (second compound 0.316 µM, first compound 1 µM): 25%; viability, T/C [13]: 40.9%; viability, T/C [14]: 45.4%; viability, T/C [15]: 34.4%; viability, T/C [16]: 35.2%; viability, T/C (second compound 1 µM, first compound 0.316 µM): 40.6%; viability, T/C (second compound 1 µM, first compound 1 µM): 18.2%; viability, T/C [17]: 49.7%; viability, T/C [18]: 38.3%; viability, T/C [19]: 35.1%; viability, T/C [20]: 34.6%; viability, T/C (second compound 3.16 µM, first compound 0.316 µM): 39.3%; viability, T/C (second compound 3.16 µM, first compound 1 µM): 26.4%; viability, T/C [21]: 42.1%; viability, T/C [22]: 40.1%; viability, T/C [23]: 42.2%; viability, T/C [24]: 38%; viability, T/C (second compound 10 µM, first compound 0.316 µM): 44.2%; viability, T/C (second compound 10 µM, first compound 1 µM): 24.6%
